Reference: ChEMBL document CHEMBL1201862, “PubChem BioAssay data set” (2004)
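Step 1: Grow cells in 96-well plates. Step 2: Expose to compound for 48 hours at 5 concentrations. Step 3: Interpolate endpoints linearly; if unreached, use highest concentration. GI50: concentration for 50% inhibition of growth.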 Calls of active or inactive are those of the source. No stated cut-off is given here; in the data, active = GI50 up to about 1.1 µM and inactive = higher.

What was measured:
Experiment in all cases: NCI anticancer screen, dose series, 48 h
[1] = test system: OVCAR-3
[2] = test system: EKVX
[3] = test system: SF-268
[4] = test system: OVCAR-5
[5] = test system: UACC-62
[6] = test system: SW-620
[7] = test system: K562
[8] = test system: IGROV-1
[9] = test system: 786-0
[10] = test system: UACC-257
[11] = test system: NCI-H522
[12] = test system: NCI-H23
[13] = test system: SK-OV-3
[14] = test system: A549
[15] = test system: HL-60
[16] = test system: CCRF-CEM

Measured: GI50

Cc1cc2cc3ccccc3cc2c(=O)[nH]1
inactive: [1] > 10 µM | [2] > 10 µM | [3] > 10 µM | [4] > 10 µM | [5] > 10 µM | [6] > 10 µM | [7] > 10 µM | [8] > 10 µM | [9] > 10 µM | [10] > 10 µM | [11] > 10 µM | [12] > 10 µM | [13] > 10 µM | [14] > 10 µM | [15] > 10 µM | [16] > 10 µM

COc1cc(C2SCC(=O)N2c2ccc(-n3c(-c4ccccc4)nc4ccccc4c3=O)cc2)ccc1O (centres undefined)
inactive: [1] > 100 µM | [2] > 100 µM | [3] 32.4 µM | [4] > 100 µM | [5] 26.1 µM | [6] > 100 µM | [7] > 100 µM | [8] > 10 µM | [9] > 100 µM | [10] > 100 µM | [11] 33 µM | [12] > 100 µM | [13] 82 µM | [14] 74.8 µM | [15] > 100 µM | [16] 27.2 µM

c1ccc2c(c1)nc1n2C2CCC(C2)N1 (centres undefined)
inactive: [1] > 10 µM | [2] > 10 µM | [3] > 10 µM | [4] > 10 µM | [5] > 10 µM | [6] > 10 µM | [7] > 10 µM | [8] > 10 µM | [9] > 10 µM | [10] > 10 µM | [11] > 10 µM | [12] > 10 µM | [13] > 10 µM | [14] > 10 µM | [15] > 10 µM | [16] > 10 µM

Cc1cc(Cl)ccc1OCC(=O)Nc1nc(N)nc(N)n1
inactive: [1] > 100 µM | [2] > 100 µM | [3] > 100 µM | [4] > 100 µM | [5] > 100 µM | [6] > 100 µM | [7] > 100 µM | [8] > 100 µM | [9] > 100 µM | [10] > 100 µM | [11] > 100 µM | [12] > 100 µM | [13] > 100 µM | [14] > 100 µM | [15] > 100 µM | [16] > 100 µM

C[C@@H]1CC[C@]2(C(=O)O)CC[C@]3(C)C(=CC[C@@H]4[C@@]5(C)CC[C@H](O)C(C)(C)[C@@H]5CC[C@]43C)[C@@H]2[C@]1(C)O [POMOLIC ACID]
inactive: [1] 18.6 µM | [2] 18.3 µM | [3] 17.1 µM | [4] 17.7 µM | [5] 3.49 µM | [6] 21.9 µM | [7] 6.49 µM | [8] 16.5 µM | [9] 5.38 µM | [10] 5.42 µM | [11] 13.9 µM | [12] 18.7 µM | [13] 17.9 µM | [14] 17.2 µM | [15] 4.35 µM | [16] 10.3 µM

CC(C)C(=O)C(C)(C)CCc1ccccn1
inactive: [1] > 100 µM | [2] > 100 µM | [3] > 100 µM | [4] > 100 µM | [5] > 100 µM | [6] > 100 µM | [7] > 100 µM | [8] > 100 µM | [9] > 100 µM | [10] > 100 µM | [11] > 100 µM | [12] > 100 µM | [13] > 100 µM | [14] > 100 µM | [15] > 100 µM | [16] > 100 µM

CCOC(=O)c1c(C)[nH]c2c1c(CN(C)C)c(O)c1nc(C)c(C)nc12
inactive: [1] 26.5 µM | [2] 27.3 µM | [3] 27.3 µM | [4] 28.4 µM | [5] 15.6 µM | [6] 24.4 µM | [7] 21.3 µM | [8] 24.2 µM | [9] 16.1 µM | [10] 23.5 µM | [11] 16.3 µM | [12] 27.8 µM | [13] 32.3 µM | [14] 22.4 µM | [15] 8.09 µM | [16] 10.8 µM

c1ccc([P+](Cc2ccc(C[P+](c3ccccc3)(c3ccccc3)c3ccccc3)cc2)(c2ccccc2)c2ccccc2)cc1
inactive: [1] 27.7 µM | [2] 21.8 µM | [3] > 100 µM | [4] 88.5 µM | [5] 44.2 µM | [6] 72.4 µM | [7] 9.66 µM | [8] 20.4 µM | [9] 47.5 µM | [10] 37.1 µM | [11] 62.2 µM | [12] 32.7 µM | [13] > 100 µM | [14] 45.7 µM | [15] 55.1 µM | [16] 71 µM

CCOC(=O)C1CCC/C1=N\NC(=N)N.Cc1cc(O)c(C(C)C)cc1S(=O)(=O)O (centres undefined)
inactive: [1] > 100 µM | [2] > 100 µM | [3] > 100 µM | [4] > 100 µM | [5] > 100 µM | [6] > 100 µM | [7] > 100 µM | [8] > 100 µM | [9] > 100 µM | [10] > 100 µM | [11] > 100 µM | [12] > 100 µM | [13] > 100 µM | [14] > 100 µM | [15] > 100 µM | [16] > 100 µM
